The source of these data is PMC1831776, “Structure and characterization of a novel chicken biotin-binding protein A (BBP-A)” (BMC Structural Biology, 2007).

Marks after values point to notes of the source that are not given here. Bounds are passed on as bounds.

Series [1] is described as follows: Dissociation of fluorescent biotin conjugate ArcDia BF560-biotin from the proteins. The class given is binding. The note with it: 25°C. The protocol:
(§1) The dissociation rate of [^3H]biotin from BBP-A was measured using a competitive dissociation assay (Figure 9; Table 2).
The dissociation rate of the fluorescent biotin conjugate ArcDia™ BF560-biotin (ArcDia Ltd., Turku, Finland) was measured as reported previously. The measurements were made at 25°C in 50 mM NaPO4 buffer (pH 7.0) containing 650 mM NaCl using a PerkinElmer LS55 luminometer.

Details of series [2]: method as in PMID 15324300. The note with it: ref [30], cited from earlier work; for Tr +BTN: with BTN; for Tr -BTN: without BTN.
Series [3] has as its target T1, bBBP-A (Gallus gallus, UniProt E1BTQ4).
T1 sequence (E1BTQ4 22-146): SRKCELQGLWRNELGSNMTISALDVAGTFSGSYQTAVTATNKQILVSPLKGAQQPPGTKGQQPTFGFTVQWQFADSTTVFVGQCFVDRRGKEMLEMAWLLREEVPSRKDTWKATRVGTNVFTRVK
Kind of series: Fluorescence spectroscopy protein-ligand dissociation analysis. The class given is binding, chicken. The protocol: Fluorescence spectroscopy was also used to measure the rate of protein-ligand dissociation. These experiments were made at 40°C in order to measure the dissociation events within an experimentally applicable timescale. […] The measured spectral properties of each protein-ligand complex (i.e. the emission intensity of the protein-ligand complex) were used to create a single-phase dissociation model, which was fitted to the data.

In series [4] the target is T1, bBBP-A. Kind of series: DSC of BBP-A in the presence of ligand. The class given is binding, chicken. The protocol: (§2) Differential scanning analysis was performed in 50 mM NaPO4 buffer (pH 7.0) containing 100 mM NaCl as previously described. The concentration of the analyzed proteins was between 0.2 and 0.6 mg/ml. In samples containing a ligand, the molar ligand concentration was three times as high as the protein subunit concentration. The samples were scanned from 25 to 130°C at a rate of 0.92°C/min.

The target in series [5] is T2, chicken AVD (Gallus gallus, UniProt P02701).
T2 construct: AVD isolated from chicken egg-white (wtAVD; Belovo S. A., Bastogne, Belgium); purchased Belovo S. A., Bastogne, Belgium; host or cells: chicken egg-white
T2 sequence (P02701 25-152): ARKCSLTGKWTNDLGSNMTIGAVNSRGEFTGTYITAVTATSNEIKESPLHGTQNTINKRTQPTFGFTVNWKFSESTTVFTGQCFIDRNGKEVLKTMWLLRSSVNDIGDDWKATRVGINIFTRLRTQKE
Put plainly: DSC of AVD in the presence of ligand. The class given is binding. Here is the method:
as §2

The target in series [6] is T2, chicken AVD. Kind of series: Isothermal titration calorimetry, AVD. The class given is binding. The note with it: 25°C. Here is the method: (§3) The energetics of biotin binding was determined with a VP-ITC (MicroCal™) Isothermal Titration Calorimeter. Measurements were performed at 25°C in degassed 50 mM NaPO4 buffer (pH 7.0) containing 100 mM NaCl. In order to calculate the enthalpies of binding (ΔH) for BBP-A and AVD, the cell used for measurements was filled with 30 μM protein solution. […] The data were analysed with Origin 7.0 software using the "One Set of Sites" method. The titration curve (heat change μcal/injection) resulting from the 15 injections was analysed by fitting the data to a nonlinear least square curve.

Series [7] has as its target T1, bBBP-A. Kind of series: Intrinsic fluorescence emission spectra, BBP-A. The class given is binding, chicken. The note with it: 100 nM protein, 200 nM ligand, 25°C, excitation 280 nm. Here is the method: (§4) The ligand-induced changes to the emission spectra of bBBP-A and wtAVD were studied, too (Figure 11). […] Compared to the ligand-free proteins, for each of the ligand-protein combinations the maximum in the emission spectra moved towards the shorter blue wavelengths.
(§5) In order to study the intrinsic fluorescence of the proteins, the emission spectra of bBBP-A and wtAVD in 50 mM NaPO4 buffer (pH 7.0) containing 650 mM NaCl were measured using a PerkinElmer LS55 spectrofluorometer and excitation at 280 nm (slit 2.5 nm). During the analysis, protein solutions (100 nM) were continuously mixed using an integrated magnetic stirrer and maintained at 25°C using a circulating water bath.

Series [8] addresses T1, bBBP-A. Put plainly: Isothermal titration calorimetry, BBP-A. The class given is binding, chicken. The note with it: for Enthalpy (ITC), BBP-A: 25°C. Here is the method:
as §3

In series [9] the target is T3, wtAVD (Gallus gallus, UniProt P02701).
T3 construct: AVD isolated from chicken egg-white (wtAVD; Belovo S. A., Bastogne, Belgium); purchased Belovo S. A., Bastogne, Belgium; host or cells: chicken egg-white
T3 sequence (P02701 25-152): as above
Put plainly: Intrinsic fluorescence emission spectra, AVD. The note with it: 100 nM protein, 200 nM ligand, 25°C, excitation 280 nm. The class given is binding, chicken. The protocol: as §4, §5

The test system of series [10] is AVD. Put plainly: Dissociation of BSO (fluorometric) versus BTN (radiobiotin) from AVD. The class given is binding, chicken. The note with it: 50°C; BSO fluorometric analysis, BTN radiobiotin assay.
Series [11] has as its target T4, BBP-A (Gallus gallus, UniProt E1BTQ4).
T4 sequence (E1BTQ4 22-146): T1 sequence (E1BTQ4 22-146)
Kind of series: Biotin-binding affinity of BBP-A. The arrangement: species or system chicken. The protocol: Background The chicken genome contains a BBP-A gene showing similar characteristics to avidin family genes. In a previous study we reported that the BBP-A gene may encode a biotin-binding protein due to the high sequence similarity with chicken avidin, especially at regions encoding residues known to be located at the ligand-binding site of avidin.
as §1

For series [12], the target named is chicken biotin-binding protein A expressed in insect cells (iBBP-A) (chicken). Put plainly: SEC; gel filtration, Superdex 200 10/300 GL, 50 mM NaPO4, 650 mM NaCl, pH 7.0; samples without BTN and after 15 min with 0.22 mM BTN; apparent masses from standard proteins. For orientation: Size exclusion chromatography separates by hydrodynamic size, large species first.

Series [13] shares this target. Kind of series: SDS-PAGE-based thermostability assay; samples saturated with BTN; acetylated in vitro, thermal treatment 20 min in sample buffer with SDS and 2-mercaptoethanol, Coomassie staining.
The nature of series [14]: Differential scanning calorimetry of the proteins. The class given is physicochemical, chicken. The note with it: with BTN. The protocol: as §2
The conditions of series [15]: without BTN; ref [33]; cited from earlier work.
Series [16] has as its target chicken biotin-binding protein A expressed in bacteria (bBBP-A) (chicken). Kind of series: SEC; gel filtration, Superdex 200 10/300 GL, 50 mM NaPO4, 650 mM NaCl, pH 7.0; samples without BTN and after 15 min with 0.22 mM BTN; apparent masses from standard proteins.
The target is the same in series [17]. Kind of series: crystal structure; bBBP-A co-crystallised with BTN; two crystals, BBP-A - BTN (2.1 A, I4(1)22) and BBP-A - BSO (1.75 A, P2(1)2(1)2).
The target is the same in series [18]. Kind of series: SDS-PAGE-based thermostability assay; samples saturated with BTN; acetylated in vitro, thermal treatment 20 min in sample buffer with SDS and 2-mercaptoethanol, Coomassie staining.
The target in series [19] is T1, bBBP-A. Put plainly: [3H]-biotin competitive dissociation analysis (ligand from BBP-A). The class given is binding, chicken. The note with it: 40°C, [3H]-biotin dissociation analysis, excess of BTN as competitive ligand. The protocol: as §1
The dissociation rate of [^3H]biotin (Amersham) was measured at various temperatures with a competition assay as described previously. Measurements were carried out in 50 mM NaPO4 buffer containing 100 mM NaCl.

Setting [20] is: 40°C, fluorescence spectroscopic analysis, excess of BTN as competitive ligand.

For “bAVD: AVD produced in E. coli, control protein”, in series [1], the “kdiss, dissociation of fluorescent BTN” value is listed as 1.1 10^-5 s^-1 and the “Release 1 h, dissociation of fluorescent BTN” value came out at 5%. Moreover, in [2], the “Tr +BTN” value is 90^b °C and the “Tr -BTN” value was 60^b °C.

Regarding `O=C(O)CCCC[C@H]1[C@H]2NC(=O)N[C@H]2CS1(=O)=O` [D-biotin sulfone], in [3] (setting [20]), the “kdiss from BBP-A” value is listed as 3.3^a × 10^-4 s^-1. Further, the “Tm (DSC), BBP-A” value in series [4] is 101.4 ± 0.2 °C. The “Tm (DSC), AVD” value in series [5] came out at 117.0 ± 0.0 °C. The “Enthalpy (ITC), AVD” value in [6] is reported as -25.1 ± 0.1 kcal/mol. Also, the “ligand-induced change of emission intensity of BBP-A” value (from here on “ligand-induced change … of BBP-A”) in series [7] was “enhanced the emission intensity”. For the same molecule, the “Enthalpy (ITC), BBP-A” value in series [8] is listed as -21.4 ± 0.1 kcal/mol. In addition, in series [9], the “ligand-induced change of emission intensity of AVD” value (“ligand-induced change … of AVD” for short) was “increased the emission intensity”.

Regarding `O=C(O)CCCC[C@H]1[C@H]2NC(=O)N[C@H]2C[S+]1[O-]` (stereo partly drawn) [BSO, D-biotin D-sulfoxide], in series [3] (setting [20]), the “kdiss from BBP-A” value is 1.3^a × 10^-4 s^-1. Besides, the “dissociation rate from AVD, times higher in comparison to BTN” value in [10] is given as “more than 20 times”. For the same molecule, in [4], the “Tm (DSC), BBP-A” value is 100.4 ± 0.2 °C. For the same molecule, in series [5], the “Tm (DSC), AVD” value was determined as 116.9 ± 0.2 °C. Also, the “Enthalpy (ITC), AVD” value in series [6] was -29.3 ± 0.1 kcal/mol. In addition, the “ligand-induced change … of BBP-A” value in series [7] is recorded as “enhanced the emission intensity”. For the same molecule, the “Enthalpy (ITC), BBP-A” value in [8] is -25.9 ± 0.1 kcal/mol. The “ligand-induced change … of AVD” value in [9] is on record as “decreased the emission intensity”. Also, the “affinity of BBP-A for BSO compared with BTN” value in series [11] is reported as “even higher than the affinity for BTN”.

Turning to “chicken biotin-binding protein A expressed in insect cells (iBBP-A) (natural protein)”, the stoichiometry N in series [12] and in series [13] was 4 throughout.

For “AVD: AVD isolated from chicken egg-white (Belovo S. A.), control protein”, in series [1], the “kdiss, dissociation of fluorescent BTN” value was 2.0 10^-5 s^-1 and the “Release 1 h, dissociation of fluorescent BTN” value came to 10%. Further, the “Tm +BTN (DSC)” value in series [14] was 117.0 °C. For the same molecule, the “Tm -BTN (DSC)” value in series [15] is 83.5^c °C. In series [2], the “Tr +BTN” value is 90^b °C and the “Tr -BTN” value was 60^b °C.

“chicken biotin-binding protein A expressed in bacteria (bBBP-A) (natural protein)”: the stoichiometry N in series [16], in [17] and in series [18] was 4 throughout.

As for `O=C(O)CCCC[C@@H]1SC[C@@H]2NC(=O)N[C@@H]21` [BTN, D-biotin], the “kdiss from BBP-A” value in [3] and in series [19] was 5.4^b (4.4^c) × 10^-4 s^-1 each time. For the same molecule, in [4], the “Tm (DSC), BBP-A” value stood at 103.4 ± 0.1 °C. For the same molecule, the “Tm (DSC), AVD” value in series [5] was determined as 117.0 ± 0.7 °C. In addition, the “Enthalpy (ITC), AVD” value in series [6] was -22.6 ± 0.1 kcal/mol. Moreover, the “ligand-induced change … of BBP-A” value in series [7] was “enhanced the emission intensity”. In [8], the Kd is < 1 nM. For the same molecule, the “Enthalpy (ITC), BBP-A” value in [8] was -20.5 ± 0.1 kcal/mol. The “ligand-induced change … of AVD” value in series [9] was “decreased the emission intensity”. The “affinity of BBP-A for biotin, times lower than that of chicken avidin” value in series [11] is given as “about 50 times”.

A word on the stoichiometry N: it is the number of molecules, sites or subunits per partner or assembly. For orientation: Kd means the constant that tells how readily two partners part at equilibrium. Lower therefore signals tighter binding.
